Source: PMC2213614 (The Journal of Cell Biology, 2008)

Target: Sec3N (GST-Sec3N, N terminus of Sec3, aa 1-320) (Saccharomyces cerevisiae, UniProt P33332)
Type: binding
Conditions: 25°C

Sequence of Sec3N (GST-Sec3N, N terminus of Sec3, aa 1-320) (P33332 1-320 limits assumed): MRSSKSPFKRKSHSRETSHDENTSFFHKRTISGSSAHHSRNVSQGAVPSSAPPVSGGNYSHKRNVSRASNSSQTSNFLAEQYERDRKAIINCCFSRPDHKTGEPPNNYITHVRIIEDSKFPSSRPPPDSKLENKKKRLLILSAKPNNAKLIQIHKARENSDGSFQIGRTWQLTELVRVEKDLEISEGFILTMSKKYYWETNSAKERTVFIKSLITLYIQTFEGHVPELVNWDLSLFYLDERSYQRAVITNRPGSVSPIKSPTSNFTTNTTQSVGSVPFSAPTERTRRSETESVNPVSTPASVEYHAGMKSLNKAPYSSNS

phosphatidylinositol 4,5-bisphosphate
Kd: 14.4 ± 4 µM
